Experimental data from patent US5006534A, “Substituted ethers, thioethers and amines for use as lipoxygenase inhibitors” (Bayer Aktiengesellschaft, priority 1985, dated 1991).

Legend:
lipoxygenase = assay: LTB4 release on polymorphonuclear rat leucocytes (PMN) by RP-HPLC after Ca ionophor, as a measure of lipoxygenase inhibition; assay type: cell-based
Procedure: The release of leukotriene B4 (LTB4) was determined on polymorphonuclear rat leucocytes (PMN) by means of reverse phase high performance liquid chromatography, after addition of substances and Ca ionophor, in accordance with the method of Borgeat, P. et al., Proc. Nat. Acad. Sci., 76, 2148-2152 (1979) as a measure of the lipoxygenase inhibition.

mouse ear inflammation = mouse ear inflammation model; assay type: in vivo

LO inhibition IC50 values (lipoxygenase) [µg/mL]	Compound	Inhibition of inflammation at 2 mg/ear (mouse ear inflammation) [%]
0.083	CCCCC(O)c1cccc(COc2cccc3cccnc23)c1 (centres unmarked) [Example 55, 1-[3-(Quinolin-8-yloxymethyl)phenyl]pentanol]	70.0
0.14	CCCCCC(OC(C)=O)c1cccc(COc2cccc3cccnc23)c1 (centres unmarked) [Example 38, 1-[3-(Quinolin-8-yloxymethyl)phenyl]hexyl acetate]	75.0
0.26	CCCCCCC(OC(C)=O)c1cccc(COc2cccc3cccnc23)c1 (centres unmarked) [Example 39, 1-[3-(Quinolin-8-yloxymethyl)phenyl]heptyl acetate]	72.0
0.23	CCCCCCC(O)c1cccc(COc2cccc3cccnc23)c1 (centres unmarked) [Example 57, 1-[3-(Quinolin-8-yloxymethyl)phenyl]heptanol]	86.1
